Data taken from patent publication US11230526B1, “Cylcoalkenyl derivatives useful as agonists of the GPR120 and/or GPR40 receptors” (Janssen Pharmaceutica NV, priority 2018, dated 2022).

Experiments:
Human GPR120 short form = molecular target: T1, Human GPR120 short form (Homo sapiens, UniProt Q5NUL3); assay: Human GPR120 calcium flux assay, Procedure Calcium B (4200 cells/well); format: cell-based
T1 construct: expressed in transfected cells
T1 sequence (Q5NUL3 1-361): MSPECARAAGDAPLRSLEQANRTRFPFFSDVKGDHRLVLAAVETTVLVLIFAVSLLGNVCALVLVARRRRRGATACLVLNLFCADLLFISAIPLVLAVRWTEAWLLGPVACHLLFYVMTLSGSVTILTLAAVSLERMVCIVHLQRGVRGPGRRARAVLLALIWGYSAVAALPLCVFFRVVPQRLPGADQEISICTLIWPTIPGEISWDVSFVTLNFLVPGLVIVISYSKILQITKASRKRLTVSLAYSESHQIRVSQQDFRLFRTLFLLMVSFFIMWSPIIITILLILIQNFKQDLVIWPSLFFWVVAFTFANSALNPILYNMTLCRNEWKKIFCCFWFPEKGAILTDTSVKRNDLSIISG
Summary of the method: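 HEK293 cells stably expressing human GPR120 (NM_001195755.1), 4200 cells/well, starved 1 h and loaded with Fluo-4 NW plus probenecid. Ligand-evoked calcium flux read on FLIPR for 300 s after a 10 s baseline. RFU = Fmax−Fmin; EC50 from four-parameter concentration-response fit.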

human GPR40 = molecular target: T2, human GPR40 (Homo sapiens, UniProt O14842); assay: GPR40 calcium flux assay, human GPR40; format: cell-based; settings: HEK293 cells stably expressing GPR40; table does not say human or rat
T2 construct: expressed in transfected cells
Summary of the method: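 Cells preincubated 1 h at 37° C. in HBSS, 20 mM HEPES, 0.1% BSA, then Fluo 8 calcium dye 30 min at 37° C. and 15 min at room temperature.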

T2 sequence (O14842 whole entry): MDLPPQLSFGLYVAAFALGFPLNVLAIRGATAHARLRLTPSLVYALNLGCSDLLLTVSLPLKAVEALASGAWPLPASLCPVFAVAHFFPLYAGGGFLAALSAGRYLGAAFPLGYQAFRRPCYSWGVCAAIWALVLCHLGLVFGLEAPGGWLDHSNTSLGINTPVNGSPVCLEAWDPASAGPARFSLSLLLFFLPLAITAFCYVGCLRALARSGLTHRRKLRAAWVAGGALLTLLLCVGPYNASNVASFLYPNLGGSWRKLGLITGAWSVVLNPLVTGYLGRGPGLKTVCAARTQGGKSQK

EC50 (Human GPR120 short form) [nM] | EC50 (human GPR40) [nM] | Compound
1330 | 46 | O=C(O)CCc1ccc(OCC2=C(Cc3ccc(F)cc3)CCC2)cc1C(F)(F)F [Compound 353, 3-[4-[[2-[(4-fluorophenyl)methyl]cyclopenten-1-yl]methoxy]-2-(trifluoromethyl)phenyl]Propanoic Acid]
2540 | 68 | O=C(O)CCc1ccc(OCC2=C(Cc3ccc(Cl)cc3)CCC2)cc1Cl [Compound 356, 3-[2-chloro-4-[[2-[(4-chlorophenyl)methyl]cyclopenten-1-yl]methoxy]phenyl]Propanoic Acid]
951 | 65 | O=C(O)CCc1ccc(OCC2=C(Cc3ccccc3)CC(F)(F)C2)cc1C(F)(F)F [Compound 358, 3-[4-[(2-benzyl-4,4-difluoro-cyclopenten-1-yl)methoxy]-2-(trifluoromethyl)phenyl]Propanoic Acid]
3110 | 81 | O=C(O)CCc1ccc(OCC2=C(Cc3ccc(Cl)cc3)CCC2)cc1C(F)(F)F [Compound 359, 3-[4-[[2-[(4-chlorophenyl)methyl]cyclopenten-1-yl]methoxy]-2-(trifluoromethyl)phenyl]Propanoic Acid]
891 | 49 | O=C(O)CCc1ccc(OCC2=C(Cc3ccccc3)CC(F)(F)C2)cc1Cl [Compound 364, 3-[4-[(2-benzyl-4,4-difluoro-cyclopenten-1-yl)methoxy]-2-chloro-phenyl]Propanoic Acid]
496 | 991 | CCCCC1=C(COc2ccc(CCC(=O)O)cc2)CCC1 [Compound 365]
1140 | > 10000 | CC1CCC(c2ccccc2)=C1COc1ccc(CCC(=O)O)cc1 (centres unmarked) [Compound 366, 3-[4-[(5-methyl-2-phenyl-cyclopenten-1-yl)methoxy]phenyl]Propanoic Acid]
1140 | 1510 | CC1CCC(c2ccccc2)=C1COc1ccc(CCC(=O)O)c(C(F)(F)F)c1 (centres unmarked) [Compound 367, 3-[4-[(5-methyl-2-phenyl-cyclopenten-1-yl)methoxy]-2-(trifluoromethyl)phenyl]Propanoic Acid]
2350 | 197 | O=C(O)CCc1ccc(OCC2=C(CCc3ccccc3)CCC2)cc1C(F)(F)F [Compound 372, 3-[4-[(2-phenethylcyclopenten-1-yl)methoxy]-2-(trifluoromethyl)phenyl]Propanoic Acid]
677 | 635 | CC(C)CC1=C(COc2ccc(CCC(=O)O)cc2)CCC1 [Compound 384, 3-[4-[(2-isobutylcyclopenten-1-yl)methoxy]phenyl]Propanoic Acid]
291 | 420 | O=C(O)CCc1ccc(OCC2=C(c3ccc(Br)cc3)CC(F)(F)C2)cc1Cl [Compound 393, 3-[4-[[2-(4-bromophenyl)-4,4-difluoro-cyclopenten-1-yl]methoxy]-2-chloro-phenyl]Propanoic Acid]

More lines, now with the values behind:

Compound | EC50 (Human GPR120 short form) [nM] | EC50 (human GPR40) [nM]
O=C(O)CCc1ccc(OCC2=C(C3=CCCCC3)CCC2)cc1C(F)(F)F [Compound 354, 3-[4-[[2-(cyclohexen-1-yl)cyclopenten-1-yl]methoxy]-2-(trifluoromethyl)phenyl]Propanoic Acid] | 1770 | 825
O=C(O)CCc1ccc(OCC2=C(C3=CCCCC3)CCC2)cc1Cl [Compound 355, 3-[2-chloro-4-[[2-(cyclohexen-1-yl)cyclopenten-1-yl]methoxy]phenyl]Propanoic Acid] | > 5000 | 3690
Cc1cc(OCC2=C(Cc3ccccc3)CC(F)(F)C2)c(F)cc1CCC(=O)O [Compound 357, 3-[4-[(2-benzyl-4,4-difluoro-cyclopenten-1-yl)methoxy]-5-fluoro-2-methyl-phenyl]Propanoic Acid] | 664 | 653
Cc1cc(OCC2=C(Cc3ccc(Cl)cc3)CCC2)c(F)cc1CCC(=O)O [Compound 360, 3-[4-[[2-[(4-chlorophenyl)methyl]cyclopenten-1-yl]methoxy]-5-fluoro-2-methyl-phenyl]Propanoic Acid] | > 5000 | 972
O=C(O)CCc1ccc(OCC2=C(Cc3cccc(F)c3)CCC2)cc1C(F)(F)F [Compound 361, 3-[4-[[2-[(3-fluorophenyl)methyl]cyclopenten-1-yl]methoxy]-2-(trifluoromethyl)phenyl]Propanoic Acid] | 3300 | 131
O=C(O)CCc1ccc(OCC2=C(Cc3cccc(F)c3)CCC2)cc1Cl [Compound 362, 3-[2-chloro-4-[[2-[(3-fluorophenyl)methyl]cyclopenten-1-yl]methoxy]phenyl]Propanoic Acid] | > 5000 | 159
Cc1cc(OCC2=C(Cc3cccc(F)c3)CCC2)c(F)cc1CCC(=O)O [Compound 363, 3-[5-fluoro-4-[[2-[(3-fluorophenyl)methyl]cyclopenten-1-yl]methoxy]-2-methyl-phenyl]Propanoic Acid] | > 5000 | 1700
O=C(O)CCc1ccc(OCC2=C(CC3CCCCC3)CCC2)cc1C(F)(F)F [Compound 369, 3-[4-[[2-(cyclohexylmethyl)cyclopenten-1-yl]methoxy]-2-(trifluoromethyl)phenyl]Propanoic Acid] | > 5000 | 125
CCCCC1=C(COc2ccc(CCC(=O)O)c(C(F)(F)F)c2)CCC1 [Compound 370, 3-[4-[(2-butylcyclopenten-1-yl)methoxy]-2-(trifluoromethyl)phenyl]Propanoic Acid] | 1150 | 133
Cc1cc(OCC2=C(C3CC3)CCC2)c(F)cc1CCC(=O)O [Compound 373, 3-[4-[(2-cyclopropylcyclopenten-1-yl)methoxy]-5-fluoro-2-methyl-phenyl]Propanoic Acid] | 1450 | 2380
CC(C)CCC1=C(COc2ccc(CCC(=O)O)c(C(F)(F)F)c2)CCC1 [Compound 374, 3-[4-[(2-isopentylcyclopenten-1-yl)methoxy]-2-(trifluoromethyl)phenyl]Propanoic Acid] | 1430 | 199
Cc1cc(OCC2=C(c3ccc(Cl)cc3)CC(F)(F)C2)c(F)cc1CCC(=O)O [Compound 375] | 88 | 962
CC(C)C1=C(COc2ccc(CCC(=O)O)c(C(F)(F)F)c2)CCC1 [Compound 377, 3-[4-[(2-isopropylcyclopenten-1-yl)methoxy]-2-(trifluoromethyl)phenyl]Propanoic Acid] | 493 | 42
CCC(CC)C1=C(COc2ccc(CCC(=O)O)c(C(F)(F)F)c2)CCC1 [Compound 380, 3-[4-[[2-(1-ethylpropyl)cyclopenten-1-yl]methoxy]-2-(trifluoromethyl)phenyl]Propanoic Acid] | > 5000 | 84
CC(C)CC1=C(COc2ccc(CCC(=O)O)c(C(F)(F)F)c2)CC(F)(F)C1 [Compound 381, 3-[4-[(4,4-difluoro-2-isobutyl-cyclopenten-1-yl)methoxy]-2-(trifluoromethyl)phenyl]Propanoic Acid] | 1650 | 150
O=C(O)CCc1ccc(OCC2=C(C3CCC3)CC(F)(F)C2)cc1C(F)(F)F [Compound 382, 3-[4-[(2-cyclobutyl-4,4-difluoro-cyclopenten-1-yl)methoxy]-2-(trifluoromethyl)phenyl]Propanoic Acid] | 635 | 46
CC(C)CC1=C(COc2ccc(CCC(=O)O)c(C(F)(F)F)c2)CCC1 [Compound 385, 3-(4-((2-isobutylcyclopent-1-en-1-yl)methoxy)-2-(trifluoromethyl)phenyl)Propanoic Acid] | 708 | 12
O=C(O)CCc1ccc(OCC2=C(C3CCCCC3)CCC2)cc1C(F)(F)F [Compound 386, 3-[4-[(2-cyclohexylcyclopenten-1-yl)methoxy]-2-(trifluoromethyl)phenyl]Propanoic Acid] | 1700 | 92
CC(C)(C)CC1=C(COc2ccc(CCC(=O)O)c(C(F)(F)F)c2)CCC1 [Compound 387, 3-[4-[[2-(2,2-dimethylpropyl)cyclopenten-1-yl]methoxy]-2-(trifluoromethyl)phenyl]Propanoic Acid] | > 5000 | 71
CCC(C)C1=C(COc2ccc(CCC(=O)O)c(C(F)(F)F)c2)CCC1 (centres unmarked) [Compound 388, 3-[4-[(2-sec-butylcyclopenten-1-yl)methoxy]-2-(trifluoromethyl)phenyl]Propanoic Acid] | 1630 | 86
CCCC1=C(COc2ccc(CCC(=O)O)c(C(F)(F)F)c2)CCC1 [Compound 389, 3-[4-[(2-propylcyclopenten-1-yl)methoxy]-2-(trifluoromethyl)phenyl]Propanoic Acid] | 750 | 51
O=C(O)CCc1ccc(OCC2=C(C3CC4CCC3C4)CCC2)cc1C(F)(F)F (centres unmarked) [Compound 390, 3-[4-[(2-norbornan-2-ylcyclopenten-1-yl)methoxy]-2-(trifluoromethyl)phenyl]Propanoic Acid] | 1190 | 23
Cc1cc(OCC2=C(c3ccc(Br)cc3)CC(F)(F)C2)c(F)cc1CCC(=O)O [Compound 392, 3-[4-[[2-(4-bromophenyl)-4,4-difluoro-cyclopenten-1-yl]methoxy]-5-fluoro-2-methyl-phenyl]Propanoic Acid] | 223 | 1400
